In ChEMBL document CHEMBL1128905, “Synthesis and biological activity of 5-heteroaryl benzodiazepines: analogues of YM022” (Bioorg Med Chem Lett, 1996):

How the values were obtained:
[1] = target: T1, Cholecystokinin receptor type A (Rattus norvegicus, UniProt P30551); experiment: Binding affinity towards Cholecystokinin type A receptor from rat pancreas using [I125]-L-364,718 as the radioligand
T1 sequence (P30551 whole entry): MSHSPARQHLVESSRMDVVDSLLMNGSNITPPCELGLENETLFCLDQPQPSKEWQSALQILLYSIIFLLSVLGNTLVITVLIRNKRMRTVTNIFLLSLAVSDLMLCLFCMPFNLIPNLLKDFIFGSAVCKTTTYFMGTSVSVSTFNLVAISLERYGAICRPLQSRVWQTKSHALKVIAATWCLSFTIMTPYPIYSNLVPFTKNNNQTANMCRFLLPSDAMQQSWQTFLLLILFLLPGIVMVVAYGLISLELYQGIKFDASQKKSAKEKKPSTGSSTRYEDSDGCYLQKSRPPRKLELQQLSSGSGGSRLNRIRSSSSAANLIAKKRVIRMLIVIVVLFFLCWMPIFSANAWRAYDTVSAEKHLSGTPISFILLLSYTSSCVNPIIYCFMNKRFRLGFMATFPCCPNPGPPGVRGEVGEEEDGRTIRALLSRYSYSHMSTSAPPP

[2] = target: T2, Gastrin/cholecystokinin type B receptor (Rattus norvegicus, UniProt P30553); experiment: Binding affinity towards gastrin/Cholecystokinin type B receptor from rat brain using [125I]CCK-8 as the radioligand
T2 sequence (P30553 whole entry): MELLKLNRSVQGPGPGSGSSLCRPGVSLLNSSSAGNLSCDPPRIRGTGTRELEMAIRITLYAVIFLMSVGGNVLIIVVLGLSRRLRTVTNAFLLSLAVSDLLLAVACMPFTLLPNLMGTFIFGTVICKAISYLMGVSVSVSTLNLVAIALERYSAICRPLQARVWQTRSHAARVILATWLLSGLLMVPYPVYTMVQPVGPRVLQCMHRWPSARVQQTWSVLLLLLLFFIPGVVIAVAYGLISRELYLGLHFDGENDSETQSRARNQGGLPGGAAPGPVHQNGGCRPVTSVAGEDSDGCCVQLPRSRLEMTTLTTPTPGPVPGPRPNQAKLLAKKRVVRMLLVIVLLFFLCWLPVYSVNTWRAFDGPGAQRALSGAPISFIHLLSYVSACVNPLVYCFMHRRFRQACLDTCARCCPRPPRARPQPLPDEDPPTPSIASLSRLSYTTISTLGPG

Rattus norvegicus [3] = experiment: Compound was evaluated for in vivo inhibition of pentagastrin induced gastric acid secretion in rats by 50% after iv administration; format: functional; conditions: Stomach
Rattus norvegicus [4] = experiment: Compound was evaluated for in vivo inhibition of pentagastrin induced gastric acid secretion in rats after iv administration at dose of 0.1 umol/kg; format: functional; conditions: Stomach

Row | SMILES | IC50 [1] | IC50 [2] | ED50 (Rattus norvegicus [3]) | inhibition in vivo at 0.1 µmol/kg (Rattus norvegicus [4])
1 | Cc1cccc(NC(=O)NC2N=C(c3ccccn3)c3ccccc3N(CC(=O)c3ccccc3C)C2=O)c1 (centres undefined) | 980 nM | 0.13 nM | 0.0167 µmol/kg | 
2 | Cc1cccc(NC(=O)NC2N=C(c3nccn3C)c3ccccc3N(CC(=O)C(C)(C)C)C2=O)c1 (centres undefined) | 844 nM | 4.52 nM |  | 49%
3 | Cc1cccc(NC(=O)NC2N=C(c3cnccn3)c3ccccc3N(CC(=O)C(C)(C)C)C2=O)c1 (centres undefined) | 1360 nM | 0.88 nM |  | 55%
4 | Cc1cccc(NC(=O)NC2N=C(c3ccccn3)c3ccccc3N(CC(=O)C(C)(C)C)C2=O)c1 (centres undefined) | 470 nM | 0.44 nM | 0.016 µmol/kg | 
5 | Cc1cccc(NC(=O)NC2N=C(c3ccccc3)c3ccccc3N(CC(=O)c3ccccc3C)C2=O)c1 (centres undefined) | 146 nM | 0.11 nM |  | 
6 | Cc1cccc(NCNC2N=C(c3ccn[nH]3)c3ccccc3N(CC(=O)C(C)(C)C)C2=O)c1 (centres undefined) | 105 nM | > 100 nM |  | 18%
7 | Cc1cccc(NC(=O)NC2N=C(c3cccnc3)c3ccccc3N(CC(=O)C3CCCC3)C2=O)c1 (centres undefined) | 80 nM | 1.6 nM |  | 34%
8 | Cc1cccc(NC(=O)NC2N=C(c3ccncc3)c3ccccc3N(CC(=O)C3CCCC3)C2=O)c1 (centres undefined) | > 10000 nM | 48 nM |  | 15%
9 | Cc1cccc(NC(=O)NC2N=C(c3ccccn3)c3ccccc3N(CC(=O)C3CCCC3)C2=O)c1 (centres undefined) | 2600 nM | 0.12 nM | 0.0189 µmol/kg | 
10 | Cc1cccc(NC(=O)NC2N=C(c3ncc[nH]3)c3ccccc3N(CC(=O)C(C)(C)C)C2=O)c1 (centres undefined) | 2610 nM | 8 nM |  | 14%
11 | Cc1cccc(NC(=O)NC2N=C(c3ccccc3)c3ccccc3N(CC(=O)C(C)(C)C)C2=O)c1 (centres undefined) | 111 nM |  |  | 
12 | Cc1cccc(NC(=O)NC2N=C(c3cnc[nH]3)c3ccccc3N(CC(=O)C(C)(C)C)C2=O)c1 (centres undefined) | 232 nM | 26.1 nM |  | 25%
13 | Cc1cccc(NCNC2N=C(c3nccs3)c3ccccc3N(CC(=O)C(C)(C)C)C2=O)c1 (centres undefined) | 433 nM | 0.8 nM |  | 58%
14 | Cc1cccc(NC(=O)NC2N=C(c3ccncc3)c3ccccc3N(CC(=O)c3ccccc3C)C2=O)c1 (centres undefined) | 670 nM | 18 nM |  | 37%
